# Source: patent publication US20260217828A1, “IMMUNE CHECKPOINT BLOCKADE THERAPY FOR TREATING STAPHYLOCOCCUS AUREUS INFECTIONS” (priority 2023, published 2026)
# Tested on: bioluminescent MRSA (USA300 LAC::lux)
# Assay: Transtibial implant-associated osteomyelitis in C57BL/6 mice, treated with sabatolimab or saline placebo
# Type: in vivo, Staphylococcus aureus
# Settings: vs saline placebo
# Description: (FIG. 7A) Schematic illustration of the experimental design. 8-week-old C57BL/6 mice were subjected to transtibial implant-associated osteomyelitis using bioluminescent MRSA (USA300 LAC::lux) and treated with sabatolimab or a saline placebo control. The concentration of anti-TIM-3 mAb used in the study is also outlined.
# Similar assays were carried out to examine the efficacy trend of immune checkpoint blockade drug Sabatolimab (anti-TIM-3) in reducing S. aureus burden due to implant-associated osteomyelitis.
# Briefly, 8-week-old C57BL/6 mice were subjected to transtibial implant-associated osteomyelitis using bioluminescent MRSA (USA300 LAC::lux). The mise were then treated with sabatolimab or a saline placebo control. The concentration of anti-TIM-3 mAb used in the study was also outlined in FIG. 7A.
substance,measurement,setting,value
sabatolimab: immune checkpoint blockade drug Sabatolimab (anti-TIM-3),in vivo S. aureus growth (longitudinal BLI),"8-week-old C57BL/6 mice, MRSA USA300 LAC::lux, n=9-10, ANOVA p<0.05",significantly decreased
same,"disease severity by terminal ex vivo CFU on the tibia and internal organs (heart, liver, kidneys, and spleen)","C57BL/6 mice, day 14 post-surgery, n=9-10, t-test p<0.05",lower disease severity
